# According to patent US10456381B2, “Compositions and methods for treating plasma cell disorders and B-cell prolymphocytic disorders” (Knopp Biosciences LLC, priority 2013, dated 2019):
# Read-outs that look alike come from different tables or passages of the source.
# Columns and labels:
# eosinophils [1] = system: eosinophils
# Procedure: (§1) The phase 3 clinical trial was a double-blind study of dexpramipexole in ALS patients randomized 1:1 to placebo or dexpramipexole 300 mg daily treatment. Hematology parameters were collected as part of routine safety monitoring. Eosinophil and basophil counts were retrospectively analyzed by visit.
# Eosinophil levels were summarized over available time points and analyzed by ANOVA testing the effect of treatment vs. placebo on mean changes in serum eosinophil counts from baseline. Subjects with baseline eosinophils from 0 to 0.02×10^9/L (constituting less than 2% of all subjects analyzed) were censored from the primary analysis because of the inherent limitation to observe a decline from baseline.
# Statistical analysis of the change from baseline was performed at month 6 to remove the effect of study dropouts in later months.
# eosinophils [2] = system: eosinophils; remark: listed apart in the source
# Procedure: In a 39-week repeat-dose toxicology study, minipigs were dosed at 0, 7.5, 25, and 75 mg/kg dexpramipexole by daily oral gavage through Study Day 45 and at 0, 7.5, 25, and 50 mg/kg dexpramipexole from Study Day 46 to study completion.
# bone marrow cells = conditions: 30 mg/kg or 100 mg/kg daily gavage, 70 days, vs vehicle control
# Procedure: The study consisted of 3 groups of BALB/cByJ mice (10 mice per group). Mice received daily gavage treatments of either 30 mg/kg, 100 mg/kg of dexpramipexole or vehicle control for 70 days. Bone marrow was processed into single cell suspensions and cells were stained with fluorescent conjugate antibodies to analyze the developmental stages of cells by flow cytometry. […] The columns depict the mean for each group and the error bar indicates the standard error of the mean.
# basophils = conditions: 300 mg daily
# Procedure: as §1
# Changes in basophil counts were also analyzed in the Phase 3 trial.
# [3] = exposures up to 18 months
# [4] = system: myeloid and lymphoid cell types, red blood cells, platelets; conditions: 300 mg daily, month 6
# Procedure: Hematological parameters were measured in a Phase 3 study of dexpramipexole in ALS. Because of the high rate of mortality among ALS patients, including subjects in the Phase 3 trial, hematology parameters obtained at the month 6 visit were chosen for analysis to remove the effect of study dropouts in later months.
# eosinophils [5] = conditions: for decline in mean serum eosinophils from baseline to week 12: 12 weeks, Part 1; for mean eosinophils at week 16 recovered to % of baseline levels: after one-month washout
# Procedure: The Phase 2 trial was a two-part, double-blind study that evaluated the safety, tolerability, and clinical effects of dexpramipexole in ALS patients.
# In Part 1, subjects were randomized to placebo (n=27), 50 mg/day (n=23), 150 mg/day (n=26), or 300 mg/day dexpramipexole (n=26) for 12 weeks.
smiles,measurement,setting,value
"CCCN[C@@H]1CCc2nc(N)sc2C1 [dexpramipexole, (6R)-2-amino-4,5,6,7-tetrahydro-6-(propylamino) benzothiazole]",subjects experiencing a 50% or greater decline in eosinophil count,"eosinophils [1]; 300 mg daily, after 6 months of treatment",77.5 % of subjects
same,peripheral blood eosinophil count,"eosinophils [1]; 300 mg daily, after 8-12 weeks of treatment",profound decrease
same,mean eosinophil counts reduced from baseline,"eosinophils [1]; 300 mg daily, month 6",68.4%
same,decrease in eosinophil count in subjects with higher eosinophil counts (>0.25×10^9/L),"eosinophils [1]; 300 mg daily, n=42, after 6 months of treatment",75%
same,time at which eosinophil-lowering effect reached plateau,"eosinophils [1]; 300 mg daily, persisted through month 12",~4 month
same,eosinophil counts in subject with highest baseline eosinophil count,"eosinophils [1]; one Phase 3 subject, persisted through month 12",decrease in eosinophil counts
same,safety assessment of eosinophil differences,"eosinophils [2]; minipig, in vivo",not considered adverse
same,reduction in eosinophils,"eosinophils [2]; minipigs, 7.5, 25 and 75/50 mg/kg daily oral gavage, 39 weeks",dose- and time-dependent reduction
same,"Siglec-F^lo IL5Rα^hi positive cells (developing B cells, basophils and other cell populations) in bone marrow",bone marrow cells,lowered
same,number of Scal^+ c-Kit^+ lineage negative cells (multipotent hematopoietic stem cells) in bone marrow,bone marrow cells,lowered
same,time at which basophil count decline reached plateau,basophils; remained reduced through month 12,~4 month
same,mean basophil counts reduced from baseline,basophils; six month analysis,45.5%
same,tolerability in humans,[3],well-tolerated
same,"all myeloid and lymphoid cell types measured, change from baseline",[4],statistically significant mean reductions
same,decline in mean serum eosinophils from baseline to week 12,eosinophils [5]; 50 mg/day,18.2%
same,mean eosinophils at week 16 recovered to % of baseline levels,eosinophils [5]; 150 mg/day group,47 % of baseline levels
same,decline in mean serum eosinophils from baseline to week 12,eosinophils [5]; 150 mg/day,69.9%
same,mean eosinophils at week 16 recovered to % of baseline levels,eosinophils [5]; 300 mg/day group,73 % of baseline levels
same,decline in mean serum eosinophils from baseline to week 12,eosinophils [5]; 300 mg/day,42.9%
same,decrease in eosinophil counts,"eosinophils [5]; ALS subjects receiving dexpramipexole, Phase 2",dose- and time-dependent decrease
same,decline in eosinophils from week 16 to week 40,"eosinophils [5]; Part 2, 25 mg twice daily",17.6%
same,decline in eosinophils from week 16 to week 40,"eosinophils [5]; Part 2, 150 mg twice daily",78.9%
same,eosinophil counts in one subject with hypereosinophilia at Part 2 baseline,"eosinophils [5]; one Phase 2 subject, persisted through month 12",decrease in eosinophil counts
